The text below walks through data of patent US20040127518A1, “Modulation of anxiety through blockade of anandamide hydrolysis” (priority 2002, published 2004).

One data set deals with CB2 receptor (Homo sapiens, UniProt P34972). Briefly: CB2 binding assay in CB2-overexpressing Chinese hamster ovary cells, [3H]WIN-55212-2.
A further data set can be described thus: Mouse formalin test. Type of data set: in vivo. As to conditions: dose not stated, data not shown. As for the experimental part:
We dissolved FAAH inhibitors in polyethyleneglycol/water (1/1) and rimonabant in saline. Formalin and hot-plate assays were carried out in the mouse, as described (Beltramo, M. et al., FEBS Lett., 403, 263-267 (1997)).
The compounds exerted, however, moderate antinociceptive effects in two models of acute pain.

Data set [1] deals with panel of 21 receptors, ion channels and neurotransmitter transporters. In words: Panel of 21 receptors, ion channels and neurotransmitter transporters. Type of data set: binding. As to conditions: 10 μM; data not shown.
The nature of the next data set: Elevated zero maze test. Type of data set: in vivo, rat. The note with it: adult rats; i.p. 30 min before test; UCM532 5 and 10 mg kg-1; UCM597 0.05-0.1 mg kg-1. As for the experimental part: We dissolved FAAH inhibitors and rimonabant in dimethylsulfoxide (DMSO)/saline (7/3 and 9/1, respectively); we administered FAAH inhibitors by i.p. injection 30 min before tests and rimonabant 30 min before UCM532. The elevated zero maze was comprised of a black Perspex annular platform (105 cm diameter, 10 cm width) elevated to 65 cm above ground level, divided equally into four quadrants (Bickerdike, M. J. et al., Eur. J. Pharmacol., 271, 403-411 (1994); Shepherd, J. K. et al., Psychopharmacology, 116, 56-64 (1994)). […] We placed the rats in a closed quadrant and video recorded them for 5-min periods, thoroughly cleaning the maze between sessions. […] Results are expressed as percent time in open quadrant/total time (percent time open). Results were analyzed by one-way ANOVA followed by Tukey's test. We recorded motor activity of each rat in an Opto-Varimex cage (Columbus Instruments, Columbus, Ohio) linked on-line to a computer and placed in a sound-attenuated room illuminated by a 20-W white light. The amount of time spent in ambulatory activity was analyzed using an Auto-Track software (Columbus Instruments, Columbus, Ohio) as described elsewhere (Ali, M. M. et al., Neurosci. Lett., 284, 57-60 (2000); Wedzony, K. et al., Neuropsychopharmacology, 23, 547-559 (2000)). […] We analyzed data by overall one-way ANOVA followed by Tukey's test for individual between-group comparisons. […]

The nature of a further data set: Catalepsy. As to conditions: UCM532 10 mg kg-1 i.p.; UCM597 0.3 mg kg-1 i.p.; data not shown. Type of data set: in vivo. The text has this: We dissolved all compounds in saline/Tween 80/polyethylenglycol (90/5/5) and administered them by i.p. injection immediately before tests. We measured body temperature with a rectal probe (Type T, Copper-Costantan Thermocouple-Physitemp Instruments INC, Clifton, N.J.) connected to a digital thermometer (model BAT-12 Physitemp Instruments INC, Clifton, N.J.); and catalepsy using the procedure described in Tseng and Craft (Tseng, A. H. et al., Eur. J. Pharmacol., 430, 41-47 (2001)).

The target of a further data set is T1, FAAH (Rattus norvegicus, UniProt P97612).
T1 sequence (P97612 1-579): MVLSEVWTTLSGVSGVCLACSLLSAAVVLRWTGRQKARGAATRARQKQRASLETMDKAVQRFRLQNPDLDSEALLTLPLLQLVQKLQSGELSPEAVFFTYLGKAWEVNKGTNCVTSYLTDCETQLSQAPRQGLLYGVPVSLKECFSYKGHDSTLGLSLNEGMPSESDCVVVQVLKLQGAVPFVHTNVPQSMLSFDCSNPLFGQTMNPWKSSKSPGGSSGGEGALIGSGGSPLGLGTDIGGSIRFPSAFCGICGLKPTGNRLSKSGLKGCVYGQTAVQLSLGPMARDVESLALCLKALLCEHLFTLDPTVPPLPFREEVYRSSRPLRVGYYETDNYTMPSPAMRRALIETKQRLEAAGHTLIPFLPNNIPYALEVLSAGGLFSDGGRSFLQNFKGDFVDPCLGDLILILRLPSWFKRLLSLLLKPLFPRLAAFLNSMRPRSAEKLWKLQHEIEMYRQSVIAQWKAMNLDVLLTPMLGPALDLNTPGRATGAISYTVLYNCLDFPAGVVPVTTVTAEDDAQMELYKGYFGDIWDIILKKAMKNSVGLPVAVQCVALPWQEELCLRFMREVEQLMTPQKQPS
In words: FAAH-catalyzed hydrolysis of [3H]anandamide by intact cortical neurons in primary cultures. The note with it: n=8, read-out: IC50, hydrolysis of exogenous [3H]anandamide. Type of data set: cell-based.

CB2 receptor, sequence (P34972 whole entry): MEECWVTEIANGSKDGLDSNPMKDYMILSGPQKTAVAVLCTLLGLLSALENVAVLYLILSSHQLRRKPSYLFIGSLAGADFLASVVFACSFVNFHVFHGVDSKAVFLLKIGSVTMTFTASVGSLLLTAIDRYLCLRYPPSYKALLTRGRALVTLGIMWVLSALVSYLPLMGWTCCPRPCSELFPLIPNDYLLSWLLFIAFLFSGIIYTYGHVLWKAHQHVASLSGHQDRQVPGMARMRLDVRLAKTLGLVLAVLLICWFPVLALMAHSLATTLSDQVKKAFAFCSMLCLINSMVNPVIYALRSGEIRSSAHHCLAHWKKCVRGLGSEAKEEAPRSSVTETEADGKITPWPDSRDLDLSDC
Text for CB2 receptor: We prepared cell fractions from rat brain homogenates, and assayed membrane FAAH activity and cytosol MGL activity using anandamide [ethanolamine-3H] (American Radiolabeled Chemicals, ARC (St. Louis Mo.), 60 Ci/mmol) and 2-mono-oleoyl-glycerol-[glycerol-1,2,3^−3H] (ARC, St. Louis Mo., 20 Ci/mmol), respectively, as substrates (Dinh, T. Proc. Natl. Acad. Sci. U.S.A. (2002)). We conducted [^3H]anandamide transport assays in human astrocytoma cells (Piomelli, D. et al., Proc. Natl. Acad. Sci. U.S.A., 96, 5802-5807 (1999)); CB1 and CB2 binding assays in rat cerebellar membranes and CB2-overexpressing Chinese hamster ovary cells (Receptor Biology-Perkin Elmer, Wellesley, Mass.), respectively, using [^3H]WIN-55212-2 (NEN-Dupont, Boston, Mass., 40-60 Ci/mmol) as a ligand (Devane, W. A. et al. Science, 258, 1946-1949 (1992)); cholinesterase assays with a commercial kit (Sigma, St. Louis, Mo.), using purified enzymes (electric eel acetylcholinesterase type V-S and horse serum cholinesterase; both from Sigma, St. Louis, Mo.) and following manufacturer's instructions.

With `CCCCNC(=O)Oc1ccc(OCc2ccccc2)cc1` [UCM532, n-Butylcarbamic acid 4-benzyloxyphenyl ester], at CB2 receptor, the “effect on binding of a high-affinity ligand to CB2 (in words)” value was “no effect”. For the same compound, on CB2 receptor (Table 2), the “CB2: maximal concentration of FAAH inhibitor tested” value was greater than 300 µM and the “CB2 SI (maximal concentration tested/IC50 for FAAH)” value is listed as “≧1000”. In addition, the “antinociceptive effect, formalin test, compared with UCM597” value in the data set “Mouse formalin test” was “mimicked, albeit less effectively”. Besides, the “interaction with panel of 21 receptors, ion channels and transporters” value in data set [1] is reported as “did not significantly interact”. In the data set “Elevated zero maze test”, the “percent time open, elevated zero maze” value was “anxiolytic-like responses”. The “catalepsy (rigid immobility)” value in “Catalepsy” is “no catalepsy”. For the same compound, the IC50 on FAAH stood at 214 ± 79 nM.
